Assay: Stability against racemization (chiral HPLC)
Assay type: physicochemical
Experimental: Test Example 7: Stability Against Racemization Each test sample (1 mg) was dissolved in CH3CN (1 mL), and 0.1 M N-methylmorpholine aqueous solution (adjusted to pH 7.4 with 1N HCl) (1 mL) was added to dilute the solution twofold, thereby preparing a solution with a final concentration of 0.5 mg/mL. The sample was divided into nine portions of 150 μL each, and each portion was placed in a sampler set to 37° C. The enantiomers in the sample were quantified at 0, 1, 3, 6, 24, 48, 72, and 167 hours under the following HPLC conditions, and the enantiomeric excess (ee) at each time point was calculated.
As test samples, Example Compound 211-1 was used as an example, while (S)-thalidomide represented by the following formula
• Equipment: ACQUITY UPLC H-Class Waters • Column: […] IE-3 (3 μm, 4.6×150 mm) Daicel Corporation • Flow rate: 0.5 mL/min • Column temperature: 25° C.
• Mobile phase: 100% MeOH • Injection volume: 0.7 μL • Detection wavelength: 217.0 nm
• Mobile phase: 100% MeOH • Injection volume: 1.2 μL • Detection wavelength: 221.0 nm
• Mobile phase: EtOH/CH3CN=90/10 • Injection volume: 1.5 μL • Detection wavelength: 221.0 nm

[1] = 0 h, pH 7.4, 37° C., CH3CN/0.1 M N-methylmorpholine aqueous solution

ee Normalized to 100 at 0 min (0 h, pH 7.4, 37° C.) | ee [1] | ee (24 h, pH 7.4, 37° C.) | ee Normalized to 100 at 0 min (24 h, pH 7.4, 37° C.) | ee (48 h, pH 7.4, 37° C.) | ee Normalized to 100 at 0 min (48 h, pH 7.4, 37° C.) | ee (72 h, pH 7.4, 37° C.) | ee Normalized to 100 at 0 min (72 h, pH 7.4, 37° C.) | ee (167 h, pH 7.4, 37° C.) | ee Normalized to 100 at 0 min (167 h, pH 7.4, 37° C.) | ee (Initial) | Compound
100 | 92.11 | 73.31 | 79.59 | 58.25 | 63.24 | 46.27 | 50.23 | 18.57 | 20.16 | 92.16 | O=C1CC[C@H](N2C(=O)c3ccccc3C2=O)C(=O)N1 [(S) Thalidomide, (S)-thalidomide]
100 | 96.08 | 77.77 | 80.94 | 62.84 | 65.4 | 50.69 | 52.76 | 21.53 | 22.41 | 95.39 | Cn1c(=O)n([C@@H]2CCC(=O)NC2=O)c2cccc(I)c21 [Compound A′]
